One assay concerns spores. Format: cell-based.
The next assay deals with RSVF1. The assay can be described thus: microbe, parasite or virus in culture. Format: cell-based, B. cereus. The settings on record: Bacillus cereus, read-out: MIC for fosfomycin.
Another assay deals with RSVF1/pDG148. Description: microbe, parasite or virus in culture. Particulars: Bacillus cereus, read-out: MIC for fosfomycin. Format: cell-based, B. cereus.
The next assay deals with RSVF1/pDG148::gp41. Description: microbe, parasite or virus in culture. Format: cell-based, B. cereus.

SMILES strings stand for the structures. Converted amounts (≈) assume the structure as drawn.

The values that follow come from US7638600B2 (priority 2004, dated 2009).

`C[C@@H](N)C(=O)O` [D-alanine] showed a germination frequency in the assay on spores of less than 10%.
Turning to `C[C@H](N)C(=O)O` [L-alanine], the “spores converted to heat sensitive forms” value with spores is more than 99%.
On to `C[C@@H]1O[C@@H]1P(=O)(O)O` [fosfomycin], for which the MIC came out at 62.5 µg/mL (≈ 453 µM) with RSVF1; 62.5 µg/mL (≈ 453 µM) in the assay with RSVF1/pDG148; 500 µg/mL (≈ 3620 µM) with RSVF1/pDG148::gp41 (Bacillus cereus, read-out: MIC for fosfomycin). The “increase in resistance to the antibiotic fosfomycin” value in the assay with RSVF1/pDG148::gp41 was found to be 4 log.
